According to PubChem BioAssay (NCI):
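Growth conditions: 96-well plates. Treatment: test compound, 48 hours, 5 concentrations. Analysis: linear interpolation between bracketing concentrations; unreached endpoints set to highest concentration. TGI marks complete inhibition of growth.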

Experiments:
Assay in all cases: NCI tumour cell line growth inhibition, 48 h
UO-31 renal = test system: UO-31 renal
LOX IMVI melanoma = test system: LOX IMVI melanoma
PC-3 prostate = test system: PC-3 prostate
SW-620 colon = test system: SW-620 colon
RPMI-8226 leukemia = test system: RPMI-8226 leukemia
OVCAR-4 ovarian = test system: OVCAR-4 ovarian
OVCAR-3 ovarian = test system: OVCAR-3 ovarian
MDA-MB-231 breast = test system: MDA-MB-231 breast
SF-295 CNS = test system: SF-295 CNS
SK-MEL-28 melanoma = test system: SK-MEL-28 melanoma
SF-268 CNS = test system: SF-268 CNS
EKVX NSCLC = test system: EKVX NSCLC
CAKI-1 renal = test system: CAKI-1 renal
MOLT-4 leukemia = test system: MOLT-4 leukemia
SR leukemia = test system: SR leukemia
BT-549 breast = test system: BT-549 breast
NCI/ADR-RES ovarian = test system: NCI/ADR-RES ovarian
M14 melanoma = test system: M14 melanoma
SNB-75 CNS = test system: SNB-75 CNS
SN12C renal = test system: SN12C renal
COLO 205 colon = test system: COLO 205 colon
HCT-116 colon = test system: HCT-116 colon
HCC-2998 colon = test system: HCC-2998 colon
NCI-H23 lung = test system: NCI-H23 lung
NCI-H226 lung = test system: NCI-H226 lung
CCRF-CEM leukemia = test system: CCRF-CEM leukemia
DU-145 prostate = test system: DU-145 prostate
HOP-92 NSCLC = test system: HOP-92 NSCLC
MDA-MB-435 = test system: MDA-MB-435
UACC-257 melanoma = test system: UACC-257 melanoma
NCI-H460 lung = test system: NCI-H460 lung
HCT-15 colon = test system: HCT-15 colon
RXF 393 renal = test system: RXF 393 renal
SK-OV-3 ovarian = test system: SK-OV-3 ovarian
A498 renal = test system: A498 renal
MCF7 breast = test system: MCF7 breast
TK-10 renal = test system: TK-10 renal
HL-60(TB) leukemia = test system: HL-60(TB) leukemia
U251 CNS = test system: U251 CNS
SF-539 CNS = test system: SF-539 CNS
HT29 colon = test system: HT29 colon
OVCAR-5 ovarian = test system: OVCAR-5 ovarian
786-0 renal = test system: 786-0 renal
UACC-62 melanoma = test system: UACC-62 melanoma
IGROV1 ovarian = test system: IGROV1 ovarian
KM12 colon = test system: KM12 colon
OVCAR-8 ovarian = test system: OVCAR-8 ovarian
K-562 leukemia = test system: K-562 leukemia
MALME-3M melanoma = test system: MALME-3M melanoma
SK-MEL-5 melanoma = test system: SK-MEL-5 melanoma
HS 578T breast = test system: HS 578T breast
SNB-19 CNS = test system: SNB-19 CNS
T-47D breast = test system: T-47D breast
MDA-N = test system: MDA-N
NCI-H522 lung = test system: NCI-H522 lung
ACHN renal = test system: ACHN renal
A549 NSCLC = test system: A549 NSCLC
HOP-62 NSCLC = test system: HOP-62 NSCLC
SK-MEL-2 melanoma = test system: SK-MEL-2 melanoma
KM20L2 colon = test system: KM20L2 colon
DLD-1 colon = test system: DLD-1 colon
DMS 273 small cell lung = test system: DMS 273 small cell lung
M19-MEL melanoma = test system: M19-MEL melanoma
DMS 114 small cell lung = test system: DMS 114 small cell lung
LXFL 529 NSCLC = test system: LXFL 529 NSCLC

Measured: TGI

Cc1ccc(S(=O)(=O)N2CCN(S(=O)(=O)c3ccc(C)cc3)CCN(S(=O)(=O)c3ccc(C)cc3)Cc3cc(Br)c(Br)cc3CN(S(=O)(=O)c3ccc(C)cc3)CC2)cc1
71.1 µM: MDA-MB-231 breast
92.4 µM: HOP-92 NSCLC
43.2 µM: M14 melanoma
not listed: SK-MEL-2 melanoma | KM20L2 colon | DLD-1 colon | DMS 273 small cell lung | M19-MEL melanoma | DMS 114 small cell lung | LXFL 529 NSCLC
> 100 µM: all other assays above

O=[N+]([O-])/C=C/c1ccc(Cl)cc1Cl
20.8 µM: CCRF-CEM leukemia
30.3 µM: SK-MEL-28 melanoma
32.6 µM: MALME-3M melanoma
42.1 µM: KM20L2 colon
27.4 µM: UACC-257 melanoma
84.4 µM: DLD-1 colon
28.6 µM: HOP-62 NSCLC
31.3 µM: UACC-62 melanoma
44.5 µM: SF-268 CNS
42.9 µM: NCI-H23 lung
25.3 µM: HL-60(TB) leukemia
47 µM: SR leukemia
29.8 µM: UO-31 renal | CAKI-1 renal | NCI-H522 lung
19.5 µM: M19-MEL melanoma
32 µM: SF-295 CNS
31 µM: HOP-92 NSCLC
37.4 µM: NCI-H460 lung
35.8 µM: DMS 114 small cell lung
9.94 µM: K-562 leukemia
29 µM: HCC-2998 colon
29.4 µM: IGROV1 ovarian | SK-MEL-5 melanoma
13 µM: HCT-116 colon
20.5 µM: U251 CNS
40.2 µM: SK-MEL-2 melanoma
32.2 µM: NCI-H226 lung
48.5 µM: A549 NSCLC
38.9 µM: COLO 205 colon
27.1 µM: LXFL 529 NSCLC
34.3 µM: ACHN renal
42.2 µM: 786-0 renal
29.6 µM: KM12 colon
24.4 µM: M14 melanoma
32.4 µM: SNB-19 CNS
45.7 µM: MOLT-4 leukemia
34.8 µM: OVCAR-4 ovarian | SNB-75 CNS
5.66 µM: RPMI-8226 leukemia
46.3 µM: OVCAR-5 ovarian
21.8 µM: HT29 colon
37.5 µM: SW-620 colon
33 µM: SF-539 CNS
53.6 µM: OVCAR-3 ovarian
67.7 µM: OVCAR-8 ovarian
29.7 µM: DMS 273 small cell lung
46.4 µM: HCT-15 colon

CC1=NNC(=S)NCCCN2CCN(CCCNC(=S)NN=C(C)C=NNC(=S)NCCCN3CCN(CCCNC(=S)NN=C1)CC3)CC2
not listed: NCI-H460 lung | KM20L2 colon | DLD-1 colon | DMS 273 small cell lung | M19-MEL melanoma | DMS 114 small cell lung | LXFL 529 NSCLC
> 100 µM: all other assays above
